# Results taken from US4481201A, “Pharmaceutical composition containing N,N^3 -di-(β-bromopropionyl)-N^1,N^2 -dispirotripiperazinium dichloride” (Vsesojuzny Nauchno-Issledovatelsky Khimoko-Farmasevtichesky …, priority 1981, dated 1984).
# Entries after “also recorded” stand apart in the source; their conditions may differ. Like-named read-outs stand apart in the source and are kept apart here.
# Experiments:
# [1] = tested on: Ienssen's sarcoma; assay: Growth of graft Ienssen sarcoma in rats; assay type: in vivo
# Excerpt: (§1) The antitumor activity has been studied on white rats weighing 110-130 g, as well as on white noninbred and inbred mice weighing 17-21 g with ligated tumors. The treatment is started 5-7 days transplanting of solid tumors and the following day after the transplanting of leukotic strains. Use has been made of the following transplantable strains of the tumors:
# (§2) (1) rats: Ienssen's sarcoma, sarcoma 45, sarcoma M-1, sarcoma 536;
# (§3) The compounds of the general formula (I), wherein X represents Cl^- (compound 1), Br^- (compound 2) are well-soluble in an isotonic solution of sodium chloride and they are administered intraperitoneally. The doses of the compounds have been calculated in mg per kg of the animal bodyweight.
# [2] = tested on: sarcoma M-1; assay: Growth of graft sarcoma M-1 in rats; assay type: in vivo; settings: rats, 85 mg/kg per os, 6 injections, one experiment
# Excerpt: as §1, §2, §3
# [3] = tested on: sarcoma 180; assay: Growth of graft sarcoma 180 in mice; assay type: in vivo, noninbred white mice
# Excerpt: as §1
# (2) noninbred white mice: sarcoma 180, sarcoma AK, sarcoma 37, carcinoma HK;
# as §3
# [4] = Toxicity on single and repeated administration to mice; assay type: in vivo; settings: for MTD / LD50: mouse, in vivo; for MTD: read-out: MTD; for Ik index of toxic effect cumulation: intraperitoneal administration; for LD50: read-out: DL50 (average lethal dose)
# Procedure: (3) acute toxicity of the compounds upon a single and repeated administration to white noninbred mice places into standard cages with 8 animals in each.
# In the investigation of toxic properties of the compounds according to the present invention there has been determined the absolutely lethal dose (DL95), average lethal dose (DL50) and MTD. For compounds 1 and 2 there were determined DL95 and DL50 on healthy white mice with the body mass of 18-21 g at a single and repeated (once a day, daily for 7 days) intraperitoneal administration.
# [5] = Solubility; assay type: physicochemical
# Procedure: as §3
# To a mixture of 3 g of N^1,N^2 -dispirotripiperazinium dichloride, 1.5 g of lithium hydroxide, 1 ml of water and 10 ml of ether a solution of 5.2 g of β-bromopropionic acid chlorid in 5 ml of ether is added under vigorous stirring and at a temperature of 5° to 10° C. The reaction mass is stirred for 2 hours at the temperature of 15° C. The residue is filtered off, dissolved in 10 ml of water; the resulting aqueous solution is poured in 100 ml of methanol.
# [6] = tested on: sarcoma 536; assay: Growth of graft sarcoma 536 in rats; assay type: in vivo; parameters: key to tumor growth suppression class, Sarcoma 536: +++: tumor growth suppression by 95-100%; ++: tumor growth suppression by 80-95%; +: tumor growth suppression by 60-80%; tumor growth suppression by 30-60%; 0: no effect; settings: for tumor growth suppression class, Sarcoma 536: rats
# Excerpt: as §1, §2, §3
# [7] = tested on: leukemia La; assay: Life span of mice with transplantable leukemia La; assay type: in vivo, inbred mice; settings: mice with transplantable leukemia La
# Excerpt: as §1
# (§4) (3) inbred mice: leukemia La, leukemia L1210 and P-388.
# (§5) The activity of compounds relative to leukosis has been assessed by the life span (It) of treated animals as compared to the control ones. It --index of suppression of leukosis development is calculated by the formula: [formula]
# [8] = tested on: sarcoma 45; assay: Growth of graft sarcoma 45 in rats; assay type: in vivo; settings: rats
# Excerpt: as §1, §2, §3
# [9] = tested on: leukemia L1210; assay: Life span of mice with transplantable leukemia L1210; assay type: in vivo, inbred mice; settings: mice with transplantable leukemia L1210
# Excerpt: as §1, §4, §5
# [10] = tested on: leukemia P-388; assay: Life span of mice with transplantable leukemia P-388; assay type: in vivo, inbred mice; settings: mice with transplantable leukemia P-388
# Excerpt: as §1, §4, §5
# [11] = Distribution of C^14-labeled preparation within organs and tissues of rats with sarcoma M-1; assay type: in vivo; settings: rats with sarcoma M-1, intravenous
# Excerpt: Furthermore, the particular distribution of the preparation according to the present invention within organs and tissues should also be noted.
# (§6) In the case of administration of the preparation according to the present invention labeled with C^14, a higher level of radioactivity in blood is observed than in the case of prospidin labeled with C^14. A higher rate of accumulation of the preparation according to the present invention as compared to prospidin is observed in larynx, windpipe, bronchi, bone marrow, tumor and thyroid gland. The preparation according to the present invention labeled with C^14 is withdrawn from the organism within 24 hours after the intravenous administration mainly with urine, while C^14 --labeled prospidin is retained in the organism for a longer period.
# [12] = Withdrawal of radioactivity from the rats' organism; assay type: in vivo; parameters: concentration or dose not given beside the values; settings: 24 hours after intravenous administration, C^14-labeled
# Excerpt: as §6
# [13] = tested on: transplantable leukemia; assay: Activity relative to leukoses of inbred mice (overall); assay type: in vivo
# Excerpt: (2) activity of the compounds relative to leukoses of inbred mice;
# as §1, §4, §5
# [14] = mice, single intraperitoneal administration
# [15] = ip, mice, single intraperitoneal administration
# [16] = rats, per os, 145 mg/kg, 7 injections
compound,measurement,setting,value
O=C(CCBr)N1CC[N+]2(CC1)CC[N+]1(CCN(C(=O)CCBr)CC1)CC2 [Compound 3],"It, % tumor growth suppression index","[1]; rats, 83 mg/kg per os (MTD), 7 injections, one experiment",50%
same,"Change in the animal body weight, test","[1]; rats, 83 mg/kg per os, 7 injections, one experiment",-7 g
same,"Change in the animal body weight, test",[2],+1 g
same,suppression of sarcoma 180 growth,"[3]; mice, per os, at MTD (dose not given)",35
same,MTD,"[4]; po, repeated administration, suspension per os",83 mg/kg
same,solubility in water,[5],sparingly soluble
"CN(C)c1nc(NP(=O)(N2CC2)N2CC2)c2c(ncn2C)n1 [Phopurine, 2-dimethylamino-6-diethyleneimido-phosphamido-7-methylpurine, reference compound]",effect on the growth of sarcoma 536,[6]; dose not given,does not affect the growth
same,"tumor growth suppression class, Sarcoma 536",[6],0
same,slowing of the growth of sarcoma 180,[3]; dose not given,36%
same,"tumor growth suppression class, Sarcoma 180",[3]; mice,+ (tumor growth suppression by 60-80%)
same,"It, % index of suppression of leukosis development",[7],204%
same,Life span,[7],22.5 ± 3.4 days
same,Ik index of toxic effect cumulation,[4]; mice,12
same,DL95 (absolutely lethal dose),[4]; [14],430 mg/kg
same,LD50,[4]; [15],280 mg/kg
same,MTD,"[4]; ip, repeated intraperitoneal administration",120 mg/kg
"OC(CCl)CN1CC[N+]2(CC1)CC[N+]1(CCN(CC(O)CCl)CC1)CC2 (stereo not drawn) [Prospidin, 3,12-diaza-6,9-diazaniumdispiro-[5,2,5,2]-hexadecane-3,12-bis-(3-chloro-2-hydroxypropyl)-dichloride, reference compound]",Ch/T chemotherapeutical index (ratio of MTD to minimum effective dose),[1]; Ienssen sarcoma,27
same,"Change in the bodyweight of animals, test",[1]; [16],-9 g
same,"It, %",[1]; [16],+30%
same,"tumor growth suppression class, Sarcoma 45",[8],++ (tumor growth suppression by 80-95%)
same,"tumor growth suppression class, Sarcoma 536",[6],++ (tumor growth suppression by 80-95%)
same,"tumor growth suppression class, Sarcoma 180",[3]; mice,++ (tumor growth suppression by 80-95%)
same,"It, % index of suppression of leukosis development",[9],0%
same,Life span,[9],8.1 ± 0.1 days
same,"It, % index of suppression of leukosis development",[7],0%
same,Life span,[7],6.6 ± 0 days
same,"It, % index of suppression of leukosis development",[10],50%
same,Life span,[10],14.8 ± 0.3 days
same,Ik index of toxic effect cumulation,[4]; mice,58
same,DL95 (absolutely lethal dose),"[4]; mice, repeated intraperitoneal administration (once a day, daily for 7 days)",250 mg/kg
same,DL50 (average lethal dose),[4]; [14],"1,000 mg/kg"
same,DL95 (absolutely lethal dose),[4]; [14],1200 mg/kg
same,LD50,[4]; [15],1000 mg/kg
same,"Coefficient of differential accumulation, Blood",[11]; 15 min,0.4
same,"Coefficient of differential accumulation, Bone marrow",[11]; 15 min,0.8
same,"Coefficient of differential accumulation, Bronchi",[11]; 15 min,2.16
same,"Coefficient of differential accumulation, Hypophysis",[11]; 15 min,2.4
same,"Coefficient of differential accumulation, Kidneys",[11]; 15 min,3.34
same,"Coefficient of differential accumulation, Larynx",[11]; 15 min,0.42
same,"Coefficient of differential accumulation, Liver",[11]; 15 min,1.43
same,"Coefficient of differential accumulation, Lungs",[11]; 15 min,1.54
same,"Coefficient of differential accumulation, Lymphonodes",[11]; 15 min,0.57
same,"Coefficient of differential accumulation, Spleen",[11]; 15 min,0.43
same,"Coefficient of differential accumulation, Thymus gland",[11]; 15 min,0.16
same,"Coefficient of differential accumulation, Tumor",[11]; 15 min,0.65
same,"Coefficient of differential accumulation, Tyroid gland",[11]; 15 min,1.2
same,"Coefficient of differential accumulation, Windpipe",[11]; 15 min,0.38
same,"Coefficient of differential accumulation, Blood",[11]; 30 min,0.1
same,"Coefficient of differential accumulation, Bone marrow",[11]; 30 min,0.6
same,"Coefficient of differential accumulation, Bronchi",[11]; 30 min,0.82
same,"Coefficient of differential accumulation, Hypophysis",[11]; 30 min,1.65
same,"Coefficient of differential accumulation, Kidneys",[11]; 30 min,0.67
same,"Coefficient of differential accumulation, Larynx",[11]; 30 min,0.32
same,"Coefficient of differential accumulation, Liver",[11]; 30 min,0.75
same,"Coefficient of differential accumulation, Lungs",[11]; 30 min,0.45
same,"Coefficient of differential accumulation, Lymphonodes",[11]; 30 min,0.48
same,"Coefficient of differential accumulation, Spleen",[11]; 30 min,0.21
same,"Coefficient of differential accumulation, Thymus gland",[11]; 30 min,0.06
same,"Coefficient of differential accumulation, Tumor",[11]; 30 min,0.37
same,"Coefficient of differential accumulation, Tyroid gland",[11]; 30 min,1.06
same,"Coefficient of differential accumulation, Windpipe",[11]; 30 min,0.21
same,"Coefficient of differential accumulation, Blood",[11]; 60 min,0.07
same,"Coefficient of differential accumulation, Bone marrow",[11]; 60 min,0.52
same,"Coefficient of differential accumulation, Bronchi",[11]; 60 min,0.5
same,"Coefficient of differential accumulation, Hypophysis",[11]; 60 min,1.47
same,"Coefficient of differential accumulation, Kidneys",[11]; 60 min,0.56
same,"Coefficient of differential accumulation, Larynx",[11]; 60 min,0.14
same,"Coefficient of differential accumulation, Liver",[11]; 60 min,0.67
same,"Coefficient of differential accumulation, Lungs",[11]; 60 min,0.2
same,"Coefficient of differential accumulation, Lymphonodes",[11]; 60 min,0.14
same,"Coefficient of differential accumulation, Spleen",[11]; 60 min,0.11
same,"Coefficient of differential accumulation, Thymus gland",[11]; 60 min,0.05
same,"Coefficient of differential accumulation, Tumor",[11]; 60 min,0.3
same,"Coefficient of differential accumulation, Tyroid gland",[11]; 60 min,0.75
same,"Coefficient of differential accumulation, Windpipe",[11]; 60 min,0.1
same,"Coefficient of differential accumulation, Blood",[11]; 24 hours,0.01
same,"Coefficient of differential accumulation, Bone marrow",[11]; 24 hours,0.18
same,"Coefficient of differential accumulation, Bronchi",[11]; 24 hours,0.25
same,"Coefficient of differential accumulation, Hypophysis",[11]; 24 hours,0.55
same,"Coefficient of differential accumulation, Kidneys",[11]; 24 hours,0.15
same,"Coefficient of differential accumulation, Larynx",[11]; 24 hours,0.05
same,"Coefficient of differential accumulation, Liver",[11]; 24 hours,0.13
same,"Coefficient of differential accumulation, Lungs",[11]; 24 hours,0.06
same,"Coefficient of differential accumulation, Lymphonodes",[11]; 24 hours,0.04
same,"Coefficient of differential accumulation, Spleen",[11]; 24 hours,0.06
same,"Coefficient of differential accumulation, Thymus gland",[11]; 24 hours,0.02
same,"Coefficient of differential accumulation, Tumor",[11]; 24 hours,0.07
same,"Coefficient of differential accumulation, Tyroid gland",[11]; 24 hours,0.22
same,"Coefficient of differential accumulation, Windpipe",[11]; 24 hours,0.07
same,"Withdrawal of radioactivity, Feces",[12],7.0%
same,"Withdrawal of radioactivity, Total",[12],75.0%
same,"Withdrawal of radioactivity, Urina",[12],68.0%
same,effect on transplantable leukemia in mice,[13],does not affect the development of leukemiae; also recorded: does not provide any effect
